Assay results reported in PubChem BioAssay (NCI).
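GI50 = concentration required for 50% inhibition of growth. TGI: total growth inhibition.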

How the values were obtained:
Test in all cases: NCI anticancer screen, dose series, 384-well format
SF-539 CNS = tested on: SF-539 CNS
HL-60(TB) leukemia = tested on: HL-60(TB) leukemia
786-0 renal = tested on: 786-0 renal
LOX IMVI melanoma = tested on: LOX IMVI melanoma
HOP-92 NSCLC = tested on: HOP-92 NSCLC
OVCAR-8 ovarian = tested on: OVCAR-8 ovarian
SK-MEL-5 melanoma = tested on: SK-MEL-5 melanoma
COLO 205 colon = tested on: COLO 205 colon
SN12C renal = tested on: SN12C renal
UO-31 renal = tested on: UO-31 renal
SW-620 colon = tested on: SW-620 colon
ACHN renal = tested on: ACHN renal
KM12 colon = tested on: KM12 colon
HCT-116 colon = tested on: HCT-116 colon
TK-10 renal = tested on: TK-10 renal
SK-MEL-2 melanoma = tested on: SK-MEL-2 melanoma
NCI-H460 NSCLC = tested on: NCI-H460 NSCLC
UACC-257 melanoma = tested on: UACC-257 melanoma
HT29 colon = tested on: HT29 colon
MCF7 breast = tested on: MCF7 breast
SF-268 CNS = tested on: SF-268 CNS
BT-549 breast = tested on: BT-549 breast
RXF 393 renal = tested on: RXF 393 renal
MDA-MB-435 melanoma = tested on: MDA-MB-435 melanoma
MALME-3M melanoma = tested on: MALME-3M melanoma
K-562 leukemia = tested on: K-562 leukemia
U251 glioblastoma = tested on: U251 glioblastoma
NCI-H23 lung = tested on: NCI-H23 lung
RPMI-8226 leukemia = tested on: RPMI-8226 leukemia
CAKI-1 renal = tested on: CAKI-1 renal
OVCAR-3 ovarian = tested on: OVCAR-3 ovarian
OVCAR-5 ovarian = tested on: OVCAR-5 ovarian
NCI-H322M lung = tested on: NCI-H322M lung
MOLT-4 leukemia = tested on: MOLT-4 leukemia
SR leukemia = tested on: SR leukemia
NCI/ADR-RES ovarian = tested on: NCI/ADR-RES ovarian
HCC-2998 colon = tested on: HCC-2998 colon
CCRF-CEM leukemia = tested on: CCRF-CEM leukemia
T-47D breast = tested on: T-47D breast
NCI-H226 lung = tested on: NCI-H226 lung
OVCAR-4 ovarian = tested on: OVCAR-4 ovarian
HCT-15 colon = tested on: HCT-15 colon
PC-3 prostate = tested on: PC-3 prostate
NCI-H522 lung = tested on: NCI-H522 lung
SK-MEL-28 melanoma = tested on: SK-MEL-28 melanoma
HOP-62 NSCLC = tested on: HOP-62 NSCLC
SF-295 CNS = tested on: SF-295 CNS
UACC-62 melanoma = tested on: UACC-62 melanoma
A549 NSCLC = tested on: A549 NSCLC
MDA-MB-468 breast = tested on: MDA-MB-468 breast
A498 renal = tested on: A498 renal
MDA-MB-231 breast = tested on: MDA-MB-231 breast
M14 melanoma = tested on: M14 melanoma
DU-145 prostate = tested on: DU-145 prostate
IGROV1 ovarian = tested on: IGROV1 ovarian
EKVX NSCLC = tested on: EKVX NSCLC
SNB-75 CNS = tested on: SNB-75 CNS
SK-OV-3 ovarian = tested on: SK-OV-3 ovarian
SNB-19 CNS = tested on: SNB-19 CNS
HS 578T breast = tested on: HS 578T breast

CC(C)Oc1ccc(C(=O)N[C@H](CNC(=O)CN(C)C)Cc2ccc(-c3cn4cccc([C@H](C)O)c4n3)cc2)cc1Cl
GI50 (SF-539 CNS): < 15.9 nM | TGI (SF-539 CNS): < 34 nM | GI50 (HL-60(TB) leukemia): < 14.2 nM | TGI (HL-60(TB) leukemia): < 18.9 nM | GI50 ([…]-0 renal): < 17.8 nM | TGI (786-0 renal): 4560 nM | GI50 (LOX IMVI melanoma): 37.9 nM | TGI (LOX IMVI melanoma): 10300 nM | GI50 (HOP-92 NSCLC): 55 nM | TGI (HOP-92 NSCLC): 12300 nM | GI50 (OVCAR-8 ovarian): < 19 nM | TGI (OVCAR-8 ovarian): 15900 nM | GI50 (SK-MEL-5 melanoma): < 21.1 nM | GI50 (COLO 205 colon): 21.4 nM | TGI (COLO 205 colon): 42.7 nM | GI50 (SN12C renal): < 20 nM | TGI (SN12C renal): 14200 nM | GI50 (UO-31 renal): 49.2 nM | TGI (UO-31 renal): 17000 nM | GI50 (SW-620 colon): < 19.8 nM | TGI (SW-620 colon): 13400 nM | GI50 (ACHN renal): 53.7 nM | TGI (ACHN renal): 20100 nM | GI50 (KM12 colon): < 20.9 nM | TGI (KM12 colon): 13800 nM | GI50 (HCT-116 colon): < 17.2 nM | TGI (HCT-116 colon): 12200 nM | GI50 (TK-10 renal): < 26.7 nM | TGI (TK-10 renal): 14700 nM | GI50 (SK-MEL-2 melanoma): < 10 nM | TGI (SK-MEL-2 melanoma): < 13 nM | GI50 (NCI-H460 NSCLC): < 14.7 nM | TGI (NCI-H460 NSCLC): < 21.4 nM | GI50 (UACC-257 melanoma): < 21.9 nM | TGI (UACC-257 melanoma): 1820 nM | GI50 (HT29 colon): < 12.2 nM | TGI (HT29 colon): < 21.4 nM | GI50 (MCF7 breast): < 23 nM | TGI (MCF7 breast): 13500 nM | GI50 (SF-268 CNS): < 17.9 nM | TGI (SF-268 CNS): 13200 nM | GI50 (BT-549 breast): < 21.2 nM | GI50 (RXF 393 renal): < 18.5 nM | GI50 (MDA-MB-435 melanoma): < 14.2 nM | TGI (MDA-MB-435 melanoma): < 22.8 nM | GI50 (MALME-3M melanoma): 182 nM | TGI (MALME-3M melanoma): 3160 nM | GI50 (K-562 leukemia): < 12.8 nM | TGI (K-562 leukemia): < 22.1 nM | GI50 (U251 glioblastoma): < 17.5 nM | TGI (U251 glioblastoma): 11500 nM | GI50 (NCI-H23 lung): < 14.5 nM | TGI (NCI-H23 lung): < 21.8 nM | GI50 (RPMI-8226 leukemia): < 13.7 nM | TGI (RPMI-8226 leukemia): < 18.4 nM | GI50 (CAKI-1 renal): < 28.3 nM | TGI (CAKI-1 renal): 15400 nM | GI50 (OVCAR-3 ovarian): < 10 nM | TGI (OVCAR-3 ovarian): < 10 nM | GI50 (OVCAR-5 ovarian): < 20.7 nM | TGI (OVCAR-5 ovarian): 14400 nM | GI50 (NCI-H322M lung): < 25.7 nM | TGI (NCI-H322M lung): 16700 nM | GI50 (MOLT-4 leukemia): < 11.1 nM | TGI (MOLT-4 leukemia): < 15.9 nM | GI50 (SR leukemia): < 12.1 nM | TGI (SR leukemia): < 17.1 nM | GI50 (NCI/ADR-RES ovarian): 1410 nM | TGI (NCI/ADR-RES ovarian): 4670 nM | GI50 (HCC-2998 colon): < 17.9 nM | GI50 (CCRF-CEM leukemia): 17.2 nM | TGI (CCRF-CEM leukemia): 33.5 nM | GI50 (T-47D breast): < 17.4 nM | TGI (T-47D breast): 12100 nM | GI50 (NCI-H226 lung): 343 nM | TGI (NCI-H226 lung): 14500 nM | GI50 (OVCAR-4 ovarian): < 20.9 nM | TGI (OVCAR-4 ovarian): 16100 nM | GI50 (HCT-15 colon): 84.7 nM | TGI (HCT-15 colon): 15800 nM | GI50 (PC-3 prostate): < 20.3 nM | TGI (PC-3 prostate): 12800 nM | GI50 (NCI-H522 lung): < 10 nM | TGI (NCI-H522 lung): < 10 nM | GI50 (SK-MEL-28 melanoma): 270 nM | TGI (SK-MEL-28 melanoma): 8220 nM | GI50 (HOP-62 NSCLC): < 18.1 nM | TGI (HOP-62 NSCLC): 14700 nM | GI50 (SF-295 CNS): < 10 nM | TGI (SF-295 CNS): < 10 nM | GI50 (UACC-62 melanoma): < 17.7 nM | TGI (UACC-62 melanoma): 9180 nM | GI50 (A549 NSCLC): < 20.7 nM | TGI (A549 NSCLC): 14500 nM | GI50 (MDA-MB-468 breast): < 10 nM | TGI (MDA-MB-468 breast): < 10 nM | GI50 (A498 renal): < 22.9 nM | TGI (A498 renal): 11400 nM | GI50 (MDA-MB-231 breast): < 19.6 nM | TGI (MDA-MB-231 breast): 4270 nM | GI50 (M14 melanoma): < 16 nM | TGI (M14 melanoma): 269 nM | GI50 (DU-145 prostate): < 17.4 nM | TGI (DU-145 prostate): < 28.9 nM | TGI (IGROV1 ovarian): 20900 nM | GI50 (EKVX NSCLC): 27.9 nM | TGI (EKVX NSCLC): 240 nM | GI50 (SNB-75 CNS): 44.6 nM | TGI (SNB-75 CNS): 16600 nM | GI50 (SK-OV-3 ovarian): < 16.1 nM | TGI (SK-OV-3 ovarian): 8720 nM | GI50 (SNB-19 CNS): < 17.4 nM | TGI (SNB-19 CNS): 14800 nM

NC[C@@](O)(c1ccc(Cl)cc1)c1ccc(-c2cn[nH]c2)cc1
GI50 (HL-60(TB) leukemia): 944 nM | TGI (HL-60(TB) leukemia): 2160 nM | GI50 (HOP-92 NSCLC): 1200 nM | TGI (HOP-92 NSCLC): 2530 nM | GI50 (ACHN renal): 1320 nM | TGI (ACHN renal): 2600 nM | GI50 (HCT-116 colon): 1650 nM | TGI (HCT-116 colon): 3080 nM | GI50 (TK-10 renal): 904 nM | TGI (TK-10 renal): 2110 nM | GI50 (BT-549 breast): 511 nM | TGI (BT-549 breast): 1780 nM | GI50 (RXF 393 renal): 999 nM | TGI (RXF 393 renal): 2180 nM | GI50 (MALME-3M melanoma): 1650 nM | TGI (MALME-3M melanoma): 3020 nM | GI50 (U251 glioblastoma): 1580 nM | TGI (U251 glioblastoma): 2950 nM | GI50 (CAKI-1 renal): 560 nM | TGI (CAKI-1 renal): 1940 nM | GI50 (OVCAR-3 ovarian): 1960 nM | TGI (OVCAR-3 ovarian): 3390 nM | GI50 (SR leukemia): 369 nM | TGI (SR leukemia): 1380 nM | GI50 (HS 578T breast): 957 nM | TGI (HS 578T breast): 2150 nM | GI50 (T-47D breast): 1300 nM | TGI (T-47D breast): 2590 nM | GI50 (MDA-MB-468 breast): 849 nM | TGI (MDA-MB-468 breast): 2110 nM | GI50 (A498 renal): 1320 nM | TGI (A498 renal): 2610 nM | GI50 (DU-145 prostate): 1470 nM | TGI (DU-145 prostate): 2810 nM | GI50 (IGROV1 ovarian): 323 nM | TGI (IGROV1 ovarian): 1270 nM | GI50 (EKVX NSCLC): 560 nM | TGI (EKVX NSCLC): 1820 nM
